ChEMBL document CHEMBL1201862, “PubChem BioAssay data set” (2004)
Calls of active or inactive are those of the source.

Experiments:
[1] = molecular target: FAD-linked sulfhydryl oxidase ALR (Homo sapiens, UniProt P55789); assay: inhibitors of human ALR sulfhydryl oxidase, dose response, biochemical, H2O2 detection, luminescence, cherry-pick (AID 493248)
[2] = molecular target: Mitogen-activated protein kinase 10 (Homo sapiens, UniProt P53779); assay: Dose response biochemical screening assay for inhibitors of c-Jun N-Terminal Kinase 3 (JNK3). [Related pubchem assays: 746 ]
Cytochrome P450 1A2 = molecular target: T1, Cytochrome P450 1A2 (Homo sapiens, UniProt P05177);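 further: PubChem cytochrome P450 panel assay, CYP1A2 panel member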
T1 sequence (P05177 whole entry): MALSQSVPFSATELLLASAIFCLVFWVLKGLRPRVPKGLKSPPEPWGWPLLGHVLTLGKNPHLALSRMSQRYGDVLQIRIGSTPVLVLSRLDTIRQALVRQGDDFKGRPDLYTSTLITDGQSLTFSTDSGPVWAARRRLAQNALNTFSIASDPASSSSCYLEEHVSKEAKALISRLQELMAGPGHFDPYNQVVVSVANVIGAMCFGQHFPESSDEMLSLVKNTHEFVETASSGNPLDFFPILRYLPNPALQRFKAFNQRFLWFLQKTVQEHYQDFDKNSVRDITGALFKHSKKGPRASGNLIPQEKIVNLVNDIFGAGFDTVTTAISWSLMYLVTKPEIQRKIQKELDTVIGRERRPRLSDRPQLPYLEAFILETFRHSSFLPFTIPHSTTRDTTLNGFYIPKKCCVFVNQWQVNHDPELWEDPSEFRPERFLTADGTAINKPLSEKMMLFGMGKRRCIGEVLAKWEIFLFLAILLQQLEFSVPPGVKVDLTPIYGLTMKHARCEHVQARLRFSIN

[3] = Luminescence Cell-Based Dose Retest to Confirm Inhibitors of Cancer Stem Cells. [Related pubchem assays (depositor defined):AID2717, AID2721]; format: functional; conditions: Homo sapiens
[4] = reduction of Shn3 3'UTR firefly luciferase signal, dose response, Schnurri-3 inhibitor project, cell-based, Clone20 osteoblasts, cherry-pick, set 2 (AID 720490); format: functional;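 further: actives lower the luminescence signal as inhibitors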
Cytochrome P450 3A4 = Cytochrome P450 3A4 (Homo sapiens, UniProt P08684);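 further: CYP3A4 tested as one member of a cytochrome P450 panel screen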
[5] = A Cell Based Secondary Assay To Explore Cytotoxicity of Compounds that Sensitize Mycobacterium Tuberculosis to Beta-Lactam Antibiotics.; format: functional
[6] = control 3'UTR Renilla luciferase suppression, dose response, counter-screen for Shn3 inhibitor project, cell-based, Clone20-Shn3RL, cherry-picked (AID 624133); format: functional
[7] = Shn3 3'UTR reporter inhibitors, dose response, cell-based, Clone20 osteoblasts, firefly luciferase, cherry-picked (AID 624132); format: functional;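 further: firefly luciferase luminescence from reporter carrying the Shn3 3'UTR in osteoblasts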
[8] = molecular target: T2, Voltage-gated inwardly rectifying potassium channel KCNH2 (Homo sapiens, UniProt Q12809); conditions: Potency;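 further: confirmatory quantitative high-throughput screen measuring inhibition of hERG channel activity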
[9] = inhibitors of control Renilla luciferase reporter, dose response, counter-screen for Shn3 3'UTR targeting project, Clone20-Shn3RL cells, dual-Glo, cherry-pick, set 2 (AID 720724); format: functional, cell-based; conditions: Dual-Go Shn3RL
[10] = HepG2 cell cytotoxicity, dose response, cytotoxicity control for Shn3 inhibitor project, CellTiter-Glo, cherry-picked (AID 624134); format: functional, cell-based
[11] = HeLa 4N DNA content increase, dose response, cell-based, IC50 (AID 1117351); format: functional
[12] = RKO cell viability reduction, dose response, CellTiter-Glo luminescence (AID 1117322); format: functional
[13] = HCT116 cell viability decrease, GSK3B pretreatment – CellTiter-Glo, IC50, dose response (AID 1117339); format: functional; conditions: HCT-116
[14] = CellTiter-Glo luminescent dose response of DLD-1 viability loss (AID 1117352); format: functional
[15] = SNU-C1 cell viability reduction, dose response, CellTiter-Glo luminescence (AID 1117323); format: functional, cell-based
[16] = Concentration-dependent survival of SW480 colon cancer line, luminescence detection with CellTiter-Glo, half-maximal inhibitory concentration (AID 1117338); format: functional
[17] = HeLa 2N DNA content increase, dose response, cell-based, IC50 (AID 1117349); format: functional
[18] = cytotoxicity toward Colo320 cells – cell-based, CellTiter-Glo luminescence, IC50, dose response (AID 1117334); format: functional; conditions: COLO 320
[19] = cytotoxicity toward HT-29 cells – cell-based, CellTiter-Glo luminescence, IC50, dose response (AID 1117330); format: functional
[20] = cytotoxicity toward HCT116 cells – cell-based, CellTiter-Glo luminescence, IC50, dose response (AID 1117332); format: functional; conditions: HCT-116
[21] = molecular target: T2, Voltage-gated inwardly rectifying potassium channel KCNH2; assay: hERG protection from proarrhythmic block, potency, dose response, cell-based, thallium flux (AID 2121); format: ADME
[22] = inhibitors of intracellular T. cruzi replication, confirmation, NIH3T3 host cells, beta-gal luminescence (AID 2044); format: functional, cell-based;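 further: intracellular parasites grown in NIH/3T3 mouse fibroblasts as host cells; luminescent beta-galactosidase reporter signal from transgenic T. cruzi replicating inside host cells; inhibitors lower the luminescence signal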
[23] = cytotoxicity toward NIH3T3 fibroblasts, dose response, counter-screen, cell-based, ATP luminescence, mouse fibroblasts (AID 2010); format: functional;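 further: cells exposed to compound for about 90 hours before reading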
Ephrin type-A receptor 4 = Ephrin type-A receptor 4 (Mus musculus, UniProt Q03137); assay: inhibitors of EphA4 binding to KYL peptide, primary screen, biochemical, colorimetric, mouse EphA4 (AID 689); format: functional
Sequence of Ephrin type-A receptor 4 (Q03137 whole entry): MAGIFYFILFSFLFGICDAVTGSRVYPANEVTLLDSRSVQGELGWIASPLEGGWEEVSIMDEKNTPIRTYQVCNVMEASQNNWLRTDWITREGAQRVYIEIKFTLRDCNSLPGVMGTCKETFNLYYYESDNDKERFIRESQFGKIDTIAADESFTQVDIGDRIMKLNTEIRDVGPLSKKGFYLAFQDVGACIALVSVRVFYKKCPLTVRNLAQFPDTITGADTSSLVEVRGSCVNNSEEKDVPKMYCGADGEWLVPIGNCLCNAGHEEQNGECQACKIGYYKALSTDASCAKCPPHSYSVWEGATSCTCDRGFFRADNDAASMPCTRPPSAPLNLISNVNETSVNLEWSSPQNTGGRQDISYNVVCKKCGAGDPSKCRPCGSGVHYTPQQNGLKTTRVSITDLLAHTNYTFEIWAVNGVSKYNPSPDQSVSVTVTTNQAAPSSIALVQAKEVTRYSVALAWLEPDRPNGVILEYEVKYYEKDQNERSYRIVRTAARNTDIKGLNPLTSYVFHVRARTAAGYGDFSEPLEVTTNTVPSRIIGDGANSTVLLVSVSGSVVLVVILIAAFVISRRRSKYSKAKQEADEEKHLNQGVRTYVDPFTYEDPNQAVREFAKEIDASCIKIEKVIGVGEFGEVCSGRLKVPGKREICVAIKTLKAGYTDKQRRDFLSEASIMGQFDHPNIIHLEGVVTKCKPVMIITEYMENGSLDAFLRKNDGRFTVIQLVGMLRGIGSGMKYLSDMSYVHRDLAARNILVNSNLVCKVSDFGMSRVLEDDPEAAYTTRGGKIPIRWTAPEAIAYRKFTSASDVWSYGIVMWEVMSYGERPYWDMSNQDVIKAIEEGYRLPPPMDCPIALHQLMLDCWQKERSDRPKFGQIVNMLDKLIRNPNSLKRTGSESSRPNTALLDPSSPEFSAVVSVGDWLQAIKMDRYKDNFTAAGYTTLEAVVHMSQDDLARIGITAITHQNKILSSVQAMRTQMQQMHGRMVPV

T2 sequence (Q12809 whole entry): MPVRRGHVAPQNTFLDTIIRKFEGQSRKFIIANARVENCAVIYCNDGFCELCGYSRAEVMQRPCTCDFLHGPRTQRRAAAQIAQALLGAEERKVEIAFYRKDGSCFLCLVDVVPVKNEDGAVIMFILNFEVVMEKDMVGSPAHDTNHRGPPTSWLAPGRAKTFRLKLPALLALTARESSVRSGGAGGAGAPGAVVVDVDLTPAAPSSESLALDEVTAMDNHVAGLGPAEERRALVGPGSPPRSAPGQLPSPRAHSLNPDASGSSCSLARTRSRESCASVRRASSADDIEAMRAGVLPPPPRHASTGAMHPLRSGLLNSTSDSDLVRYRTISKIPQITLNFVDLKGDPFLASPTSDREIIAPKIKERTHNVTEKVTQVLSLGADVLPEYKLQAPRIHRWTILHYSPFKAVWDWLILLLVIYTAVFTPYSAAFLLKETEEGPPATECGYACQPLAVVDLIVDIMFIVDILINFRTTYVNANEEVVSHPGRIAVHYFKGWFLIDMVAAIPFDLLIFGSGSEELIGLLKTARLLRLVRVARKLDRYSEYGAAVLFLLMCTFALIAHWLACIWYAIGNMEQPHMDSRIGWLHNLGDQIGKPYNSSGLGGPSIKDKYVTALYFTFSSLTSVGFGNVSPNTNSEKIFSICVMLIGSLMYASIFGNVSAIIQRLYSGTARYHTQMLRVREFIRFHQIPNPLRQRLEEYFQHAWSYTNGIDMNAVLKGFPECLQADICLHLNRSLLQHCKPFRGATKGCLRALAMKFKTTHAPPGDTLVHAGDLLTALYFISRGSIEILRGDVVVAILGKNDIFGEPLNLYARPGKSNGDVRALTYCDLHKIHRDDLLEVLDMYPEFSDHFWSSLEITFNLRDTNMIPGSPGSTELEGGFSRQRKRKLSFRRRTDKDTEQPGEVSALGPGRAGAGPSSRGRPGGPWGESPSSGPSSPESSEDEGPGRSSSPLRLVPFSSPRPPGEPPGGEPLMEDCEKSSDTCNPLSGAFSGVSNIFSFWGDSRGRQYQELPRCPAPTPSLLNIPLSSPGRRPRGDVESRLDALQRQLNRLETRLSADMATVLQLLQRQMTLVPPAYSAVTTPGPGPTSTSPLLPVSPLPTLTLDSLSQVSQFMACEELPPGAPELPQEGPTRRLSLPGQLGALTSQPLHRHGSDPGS
Sequence of Cytochrome P450 3A4 (P08684 whole entry): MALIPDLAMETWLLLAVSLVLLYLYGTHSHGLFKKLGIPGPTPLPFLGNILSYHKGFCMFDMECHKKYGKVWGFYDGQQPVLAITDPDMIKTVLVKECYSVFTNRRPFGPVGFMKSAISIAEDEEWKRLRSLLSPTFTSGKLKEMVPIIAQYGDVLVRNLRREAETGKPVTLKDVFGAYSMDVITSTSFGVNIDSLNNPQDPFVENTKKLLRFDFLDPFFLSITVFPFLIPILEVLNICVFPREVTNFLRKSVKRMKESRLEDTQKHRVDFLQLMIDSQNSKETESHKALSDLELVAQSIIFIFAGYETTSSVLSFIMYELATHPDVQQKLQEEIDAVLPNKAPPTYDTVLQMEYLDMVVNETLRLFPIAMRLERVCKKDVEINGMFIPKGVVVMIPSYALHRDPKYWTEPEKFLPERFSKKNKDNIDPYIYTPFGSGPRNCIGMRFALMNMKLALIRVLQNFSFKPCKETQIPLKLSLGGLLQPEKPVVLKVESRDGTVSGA
Sequence of Mitogen-activated protein kinase 10 (P53779 whole entry): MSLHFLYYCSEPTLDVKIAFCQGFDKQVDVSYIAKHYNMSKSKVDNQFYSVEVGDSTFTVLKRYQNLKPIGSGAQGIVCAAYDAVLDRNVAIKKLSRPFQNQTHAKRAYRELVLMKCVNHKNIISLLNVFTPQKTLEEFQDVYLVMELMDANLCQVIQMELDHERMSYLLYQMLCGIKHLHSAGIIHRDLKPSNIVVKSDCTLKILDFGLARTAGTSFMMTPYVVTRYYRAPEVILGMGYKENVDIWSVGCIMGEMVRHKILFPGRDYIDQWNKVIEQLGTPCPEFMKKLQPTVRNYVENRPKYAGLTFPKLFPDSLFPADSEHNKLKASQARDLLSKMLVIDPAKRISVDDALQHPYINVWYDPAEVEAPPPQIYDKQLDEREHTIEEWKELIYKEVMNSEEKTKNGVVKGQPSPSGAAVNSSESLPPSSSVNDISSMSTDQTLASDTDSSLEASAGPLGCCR
Sequence of FAD-linked sulfhydryl oxidase ALR (P55789 whole entry): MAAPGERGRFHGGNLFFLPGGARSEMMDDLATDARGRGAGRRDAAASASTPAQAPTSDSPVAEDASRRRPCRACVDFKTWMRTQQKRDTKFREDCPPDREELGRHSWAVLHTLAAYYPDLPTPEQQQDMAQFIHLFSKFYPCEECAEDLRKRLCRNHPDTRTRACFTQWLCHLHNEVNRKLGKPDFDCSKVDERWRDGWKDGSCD

In the case of `c1ccc(Nc2ccccc2Nc2ccccn2)nc1`, the AC50 [1] is reported as 0.773 µM (active) and the IC50 [2] is reported as 18.4 µM (not active).
For `Nc1ncnc2c1c(-c1ccc(Oc3ccccc3)cc1)cn2C1CCCC1`, the AC50 (Cytochrome P450 1A2) was 15.8 µM (inconclusive), the AC50 [3] was 3.03 µM (active) and the AC50 [4] was 4.83 µM (active). For the same compound, the AC50 (Cytochrome P450 3A4) was “inconclusive”, the CC50 [5] was 0.802 µM (active) and the AC50 [6] was 31.7 µM (active). The AC50 [7] was 0.658 µM (active), the AC50 [8] was 5.01 µM (inconclusive) and the AC50 [9] was 56.8 µM (active). The AC50 [10] was > 70 µM (inactive).
For `Cc1cc(O)c2c3c4c(cc(O)c13)C(C)(C)C(=O)c1c(O)cc(O)c(c1-4)C2=O` [HELIOMYCIN], the IC50 [11] was > 10 µM (inactive), the IC50 [12] was 0.0754 µM (active) and the IC50 [13] was 0.0574 µM (active). The IC50 [14] was 0.0709 µM (active), the IC50 [15] was 0.332 µM (active) and the IC50 [16] was 0.058 µM (active). The IC50 [17] was > 10 µM (inactive), the IC50 [18] was 0.082 µM (active) and the IC50 [19] was 3.01 µM (active). For the same compound, the IC50 [20] was 0.0775 µM (active).
With `CC(C)c1ccc(/C=N/n2c(S)nnc2COc2ccccc2)cc1` the EC50 [21] was 7.6 µM (active).
For `Cc1ccc(C)c(N(CC(=O)N/N=C/c2ccc(-c3ccc([N+](=O)[O-])cc3)o2)S(=O)(=O)c2ccccc2)c1`, the EC50 [22] was 1.65 µM (active), the EC50 [23] was > 30 µM (not active) and the IC50 (Ephrin type-A receptor 4) was > 100 µM (not active).
